Data taken from patent publication US20240398805A1, “QUINAZOLINE DERIVED COMPOUNDS AS EGFR INHIBITORS AND THEIR USES THEREOF” (ACCUTAR BIOTECHNOLOGY INC., priority 2021, published 2024).

What was measured:
Format in all cases: cell-based
[1] = tested on: HCC827-SVD cells (human EGFR exon 20 insertion mutant D770_N771 insSVD); assay: Cell growth inhibition (CellTiter-Glo, 3 days) in HCC827-SVD; conditions: 72 h, 3 days after administration
How it was run: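 HCC827 cells carrying lentiviral codon-optimized EGFR D770_N771 insSVD, with endogenous EGFR knocked out by CRISPR (single clone), seeded at 5000 cells/well in RPMI with 10% FBS. Viability read by CellTiter-Glo luminescence.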

[2] = tested on: HCC827-ASV cells (human EGFR exon 20 insertion mutant A769_D770insASV); assay: Cell growth inhibition (CellTiter-Glo, 3 days) in HCC827-ASV; conditions: 72 h, 3 days after administration
How it was run: (§1)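 Growth inhibition used a CellTiter-Glo luminescence read-out after 3 days of compound exposure at various concentrations. Cells were plated the day before at 5000/well in RPMI plus 10% FBS. The lines are HCC827 transduced by lentivirus with codon-optimized EGFR ASV or ERBB2 YVMA exon 20 insertions.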

[3] = tested on: HCC827-YVMA cells (human ERBB2 exon20 insertion mutant A775_G776ins YVMA); assay: Cell growth inhibition (CellTiter-Glo, 3 days) in HCC827-YVMA; conditions: 72 h, 3 days after administration
How it was run: as §1

[4] = tested on: A431 cells; assay: Cell growth inhibition (CellTiter-Glo, 3 days) in A431; conditions: Homo sapiens, A-431, 72 h, 3 days after administration
How it was run: (§2)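 HCC827 cells in RPMI/10% FBS and A431 cells in DMEM/10% FBS were seeded at 5000 cells/well and left overnight. Compound was then added over a concentration range for 3 days of incubation, and viability was read by CellTiter-Glo luminescence.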

[5] = tested on: HCC827 cells; assay: Cell growth inhibition (CellTiter-Glo, 3 days) in HCC827; conditions: Homo sapiens, 72 h, 3 days after administration
How it was run: as §2

| Compound | GI50 [1] | GI50 [2] | GI50 [3] | GI50 [4] | GI50 [5] |
| --- | --- | --- | --- | --- | --- |
| C=CC(=O)N1CCC(Nc2cc3c(Nc4ccc(Oc5ccnc(N6C[C@H](OC)[C@@H](OC)C6)c5)cc4F)ncnc3cc2OC)CC1 [Example 256, 1-(4-((4-((4-((2-((3S,4S)-3,4-dimethoxypyrrolidin-1-yl)pyridin-4-yl)oxy)-2-fluorophenyl)amino)-7-methoxyquinazolin-6-yl)amino)piperidin-1-yl)prop-2-en-1-one] | < 30 nM | < 30 nM | < 30 nM | 100 to 300 nM | 60 to 100 nM |
| C=CC(=O)N1CCC(Nc2cc3c(Nc4ccc(Oc5ccnc(N6CC[C@@H](C#N)C6)c5)cc4F)ncnc3cc2OC)CC1 [Example 258, (R)-1-(4-(4-((6-((1-acryloylpiperidin-4-yl)amino)-7-methoxyquinazolin-4-yl)amino)-3-fluorophenoxy)pyridin-2-yl)pyrrolidine-3-carbonitrile] | < 30 nM | < 30 nM | < 30 nM | 600 to 1000 nM | 60 to 100 nM |
| C=CC(=O)N1CCC(Nc2cc3c(Nc4ccc(Oc5ccnc(N6CC[C@H](C#N)C6)c5)cc4F)ncnc3cc2OC)CC1 [Example 259, (S)-1-(4-(4-((6-((1-acryloylpiperidin-4-yl)amino)-7-methoxyquinazolin-4-yl)amino)-3-fluorophenoxy)pyridin-2-yl)pyrrolidine-3-carbonitrile] | < 30 nM | < 30 nM | < 30 nM | ≥ 1000 nM | 60 to 100 nM |
| C=CC(=O)N1CCC(Nc2cc3c(Nc4ccc(Oc5ccnc(N6CC(F)(F)C(F)(F)C6)c5)cc4F)ncnc3cc2OC)CC1 [Example 261, 1-(4-((4-((2-fluoro-4-((2-(3,3,4,4-tetrafluoropyrrolidin-1-yl)pyridin-4-yl)oxy)phenyl)amino)-7-methoxyquinazolin-6-yl)amino)piperidin-1-yl)prop-2-en-1-one] | 30 to 60 nM | 30 to 60 nM | 30 to 60 nM | 600 to 1000 nM | 100 to 300 nM |
| C=CC(=O)N1CCC(Nc2cc3c(Nc4ccc(Oc5ccnc(N6C[C@@H](F)[C@@H](OC)C6)c5)cc4F)ncnc3cc2OC)CC1 [Example 263, 1-(4-((4-((2-fluoro-4-((2-((3R,4S)-3-fluoro-4-methoxypyrrolidin-1-yl)pyridin-4-yl)oxy)phenyl)amino)-7-methoxyquinazolin-6-yl)amino)piperidin-1-yl)prop-2-en-1-one] | < 30 nM | < 30 nM | < 30 nM | 600 to 1000 nM | 100 to 300 nM |
| C=CC(=O)N1CCC(Nc2cc3c(Nc4ccc(Oc5ccnc(N6C[C@H](F)[C@@H](F)C6)c5)cc4F)ncnc3cc2OC)CC1 [Example 264, 1-(4-((4-((4-((2-((3S,4S)-3,4-difluoropyrrolidin-1-yl)pyridin-4-yl)oxy)-2-fluorophenyl)amino)-7-methoxyquinazolin-6-yl)amino)piperidin-1-yl)prop-2-en-1-one] | < 30 nM | < 30 nM | < 30 nM | 600 to 1000 nM | 60 to 100 nM |

The next lines start with the values.

| GI50 [1] | GI50 [2] | GI50 [3] | GI50 [4] | GI50 [5] | Compound |
| --- | --- | --- | --- | --- | --- |
| < 30 nM | < 30 nM | < 30 nM | 600 to 1000 nM | 60 to 100 nM | C=CC(=O)N1CCC(Nc2cc3c(Nc4ccc(Oc5ccnc(N6C[C@@H]7OCCO[C@@H]7C6)n5)cc4F)ncnc3cc2OC)CC1 [Example 257, 1-(4-((4-((2-fluoro-4-((2-((4aR,7aS)-hexahydro-6H-[1,4]dioxino[2,3-c]pyrrol-6-yl)pyrimidin-4-yl)oxy)phenyl)amino)-7-methoxyquinazolin-6-yl)amino)piperidin-1-yl)prop-2-en-1-one] |
| < 30 nM | 30 to 60 nM | 30 to 60 nM | 600 to 1000 nM | 30 to 60 nM | C=CC(=O)N1CCC(Nc2cc3c(Nc4ccc(Oc5ccnc(N6CCC(C)(C#N)C6)c5)cc4F)ncnc3cc2OC)CC1 (stereo not drawn) [Example 262, 1-(4-(4-((6-((1-acryloylpiperidin-4-yl)amino)-7-methoxyquinazolin-4-yl)amino)-3-fluorophenoxy)pyridin-2-yl)-3-methylpyrrolidine-3-carbonitrile] |
| < 30 nM | < 30 nM | < 30 nM | 100 to 300 nM | 30 to 60 nM | C=CC(=O)N1CCC(Nc2cc3c(Nc4ccc(Oc5ccnc(N6CCC(C)(F)C6)c5)cc4F)ncnc3cc2OC)CC1 (stereo not drawn) [Example 265, 1-(4-((4-((2-fluoro-4-((2-(3-fluoro-3-methylpyrrolidin-1-yl)pyridin-4-yl)oxy)phenyl)amino)-7-methoxyquinazolin-6-yl)amino)piperidin-1-yl)prop-2-en-1-one] |
